Measured values taken from PubChem BioAssay (NCI).
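Cells were grown in 96-well plates and exposed to each compound for 48 hours at five concentrations; endpoints were interpolated linearly between bracketing concentrations, or set to the highest concentration if not reached. TGI: total growth inhibition.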

Tests used:
Assay in all cases: NCI tumour cell line growth inhibition, 48 h
[1] = test system: A498 renal
[2] = test system: A549 NSCLC
[3] = test system: CAKI-1 renal
[4] = test system: NCI-H460 lung
[5] = test system: NCI-H522 lung
[6] = test system: SF-295 CNS
[7] = test system: SN12C renal
[8] = test system: SNB-19 CNS
[9] = test system: SNB-75 CNS
[10] = test system: TK-10 renal

| SMILES | TGI [1] [µM] | TGI [2] [µM] | TGI [3] [µM] | TGI [4] [µM] | TGI [5] [µM] | TGI [6] [µM] | TGI [7] [µM] | TGI [8] [µM] | TGI [9] [µM] | TGI [10] [µM] |
| --- | --- | --- | --- | --- | --- | --- | --- | --- | --- | --- |
| CCO/C=N/C1=C(C#N)SC2=N/C(=C\c3ccccc3)C(=O)N21 | > 100 | > 100 | > 100 | > 100 | > 100 | > 100 | > 100 | > 100 | > 100 | > 100 |
| O=C1CC(NCc2ccccc2)c2c(Cl)sc(Cl)c21 (stereo not given) | > 100 | > 100 | 53 | > 100 | 18.3 | > 100 | 58 | > 100 | 80.6 | > 68.7 |
| Cc1nc2sccn2c1/C=C1/C(=O)Nc2cccc(Cl)c21 | > 100 | > 100 | > 100 | > 100 | > 100 | > 100 | > 100 | > 100 | > 100 | > 100 |
| CC(=O)OC(Cc1c(O)c2c(C)cccc2oc1=O)C(C)(C)O (stereo not given) | > 100 | > 100 | > 100 | > 100 | > 100 | > 100 | > 100 | > 100 | > 100 | > 100 |
| c1ccc(CSC2(SCc3ccccc3)CCCCC2)cc1 | > 10 | > 10 | > 10 | > 10 | > 10 | > 10 | > 10 | > 10 | > 10 | > 10 |
| O=C(c1ccccc1)N1C(=S)N(c2ccccn2)C(=Nc2ccccc2)C1=Nc1ccccc1 | > 100 | > 100 | 43.8 | > 70.6 | 5.61 | > 73.8 | > 100 | > 96.2 | > 100 | 88.2 |
| Cc1ccc(Nc2nc3c(=O)n(C)c(=O)n(C)c3nc2Nc2ccc(C)cc2)cc1 | 40.2 | 52.9 | 30.4 | > 100 | 2.42 | 45.7 | 30.5 | > 100 | 35.2 | 29.9 |
| COC(=O)/C=C1/OC(c2ccc(OC)cc2)=C(Cl)C1=O | 49.1 | 56.4 | 27 | 42.9 | 28.6 | 43.4 | 40.4 | 52.8 | 37.3 | 40.1 |
| O=C(c1cc2c(c3ccccc13)NC1(CCCCC1)N=C2C(F)(F)F)C(F)(F)F | 20.8 | 16.3 | 13.1 | 10.9 | 6.95 | 10.9 | 13.2 | 18.7 | 19.1 | 14 |
| CN(C)Cc1cc(N=Nc2ccc(Cl)cc2)cc(CN(C)C)c1O | 29.8 | 21.3 | 26.8 | 18.1 | 5.97 | 24.7 | 23.8 | 25.5 | 25.8 | 21.3 |
| CCCCCCCCCCCCCCCCCCOCC(O)COP(=O)(O)OCC1OC(n2ccc(N)nc2=O)C(O)C1O (stereo not given) | 40.6 | > 100 | 75 | 14.8 | 41.8 | 68.8 | > 100 | 24.6 | 28.7 | 51.1 |
| CCOP(=O)(OCC)OC1c2[nH]cc(C(=O)OCc3ccccc3)c2-c2cc(C(=O)OC)[nH]c2C1OC (stereo not given) | > 100 | > 61.2 | > 100 | > 100 | 29.1 | 28.8 | > 100 | > 100 | 56.2 | > 39.9 |
| ON=C(CC(O)(C(F)(F)Cl)C(F)(F)Cl)CC(O)(C(F)(F)Cl)C(F)(F)Cl | > 10 | > 10 | > 10 | > 10 | > 10 | > 10 | > 10 | > 10 | > 10 | > 10 |
| N#Cc1c(-c2ccccc2)c(CN2CCCCC2)c(=O)n2c1[nH]c1ccccc12 | > 100 | > 100 | > 100 | > 100 | 61.7 | > 100 | > 100 | > 100 | > 100 | > 100 |
| CC(=O)CC1=C(OC(C)C)C2(OCCO2)C1O (stereo not given) | > 100 | > 100 | > 100 | > 100 | > 100 | > 100 | > 100 | > 100 | > 100 | > 100 |
| CC1=C(C(=O)N[C@@H](CC(C)C)C(=O)O)N2C(=O)[C@@H](NC(=O)C(N)c3ccccc3)[C@H]2SC1 (stereo not given in full) | > 100 | > 100 | > 100 | > 100 | > 100 | > 100 | > 100 | > 100 | > 100 | > 100 |
| O=C(N/N=C/c1ccccc1)c1cccc2nc3ccccc3nc12 | > 100 | > 84 | > 100 | 31.4 | > 100 | > 86.5 | > 100 | > 100 | > 100 | > 100 |
